The source of these data is ChEMBL document CHEMBL3507680, “University of Dundee, Gates Library screen for HepG2 cell viability”.

The data set can be described thus: Human HepG2 cell viability assay in 384 well format. The class given is toxicity, cell-based. On the set-up: dose 125 nL, time 70.5 hour; concentration not given beside the values. The note with it: HepG2 cells, read-out: Inhibition.

On to `O=c1c(S(=O)(=O)N2CCCCC2)cccn1Cc1ccccc1Cl`, for which the cytotoxicity at 70.5 h was -1.51%.
The value for `CC1CCN(S(=O)(=O)c2cccn(CC(=O)NC(C)(C)C)c2=O)CC1` was -9.49%; that for `Cc1ccc(-c2csc3c(=O)[nH]c(N4CCCC(C(N)=O)C4)nc23)cc1` (stereo unspecified) was 1.04%; that for `O=C(O)C1CCCN(c2nc3c(-c4ccccc4)csc3c(=O)[nH]2)C1` (stereo unspecified) was 0.25%.
In the case of `COCCCNC(=O)Cc1cc(-c2ccc(Cl)cc2)on1` it was 3.59%; in that of `O=C(Cc1cc(-c2ccc3c(c2)OCCO3)on1)NCc1ccccn1`, -10.7%; in that of `O=C(c1cc(F)cc(F)c1)N1CCC2(CC1)CC2`, -9.31%.
Turning to `O=C(C1CCCC1)N1CCO[C@@H]2CNC[C@@H]21`, the cytotoxicity at 70.5 h was found to be 12.2%.
Take `CN1C2(CCN(Cc3ccc(F)cc3)C2)c2ccccc2S1(=O)=O` (stereo unspecified): the cytotoxicity at 70.5 h came to 13.5%.
In the case of `CCN1C(=O)CC(c2cnn(C)c2)C12CCN(C(=O)C1CC=CC1)CC2` (stereo unspecified), the cytotoxicity at 70.5 h worked out at 0.244%.
The value for `c1ccc(NCc2cn3c(n2)CN(Cc2ccoc2)CC3)nc1` was -0.75%.
The value for `CN1C(=O)CC(c2cnn(C)c2)C12CCN(C(=O)c1ccc[nH]1)CC2` (stereo unspecified) was -5.07%; that for `O=c1cc(Cn2ccnc2)nc2n1CCCN(Cc1ccco1)C2` was -5.53%.
Regarding `O=c1cc(Cn2cncn2)nc2n1CCCN(Cc1ccco1)C2`, the cytotoxicity at 70.5 h is -3.55%.
In the case of `c1cnc(OCc2nnc3n2CCN(Cc2ccco2)C3)nc1` it was -0.839%.
Turning to `CCOC(=O)C1CN(S(=O)(=O)CC)Cc2ncn(CC)c21` (stereo unspecified), the cytotoxicity at 70.5 h came to 0.473%.
In the case of `Cn1cc(C2CC(=O)NC23CCN(C(=O)c2ccc[nH]2)CC3)cn1` (stereo unspecified) it was -1.53%; in that of `CC(=O)N1CCCc2sc(C(=O)Nc3ccc(C)nc3)nc21`, -1.24%; in that of `O=C(C1CCCCC1)N1CCO[C@@H]2CNC[C@@H]21`, -2.15%.
Regarding `Cc1noc([C@]23COC[C@H]2CN(S(=O)(=O)N(C)C)C3)n1`, the cytotoxicity at 70.5 h was -1.88%.
On to `Cc1noc([C@]23COC[C@H]2CN(S(=O)(=O)C2CC2)C3)n1`, for which the cytotoxicity at 70.5 h was -1.24%.
The value for `COCC1c2c(cnn2C)CCN1C(=O)c1ccc2c(c1)OCO2` (stereo unspecified) was 1.82%; that for `c1cncc(-c2ccc3c(c2)CCC32CCNCC2)c1` was 17.8%.
In the case of `CN(C)C(=O)N1CCC2(CC(=O)N(c3ccc4c(c3)OCO4)C2)C1` (stereo unspecified) it was 1.41%; in that of `O=c1ccc2c(n1Cc1ccncc1)CCN(C1CCOC1)CC2` (stereo unspecified), 0.608%; in that of `CC(C)NC(=O)N1CCC(c2nnc3ccc(C(=O)N(C)C)cn23)C1` (stereo unspecified), -1.02%.
In the case of `CN1CCCN(C(=O)c2nc3c(s2)CCCN3CC2CC2)CC1` it was -1.89%; in that of `O=C(c1cc(-c2ccn(CC3CC3)n2)n2ccccc12)N1CCCO1`, -3.08%.
Regarding `O=C(NC1CCCC1)c1nc2c(o1)CN(C(=O)CO)C2`, the cytotoxicity at 70.5 h was -1.18%.
The value for `c1cc(-c2nnn3c2COC(CNCC2CCOCC2)C3)ccn1` (stereo unspecified) was 32.3%; that for `O=C(C1CN(CC2CC2)CC12CCOCC2)N1CCCC1` (stereo unspecified) was 16.3%; that for `O=C(c1ccsc1)N1CCc2onc(CN3CCOCC3)c2C1` was -4.87%.
In the case of `O=C1[C@@H]2CCN(CC3CC3)C[C@@H]2OCCN1c1ccsc1` it was -2.56%; in that of `COCCN1CCC2(CC1)CC(CC(N)=O)c1ccc(F)cc12` (stereo unspecified), 1.63%; in that of `c1cc(CNCC2Cn3nncc3CO2)ccn1` (stereo unspecified), -5.93%.
In the case of `CNC(=O)c1cnc2n1CCN(C(=O)Cc1ccccn1)C2`, the cytotoxicity at 70.5 h was -13.8%.
In the case of `CC(C)N1c2sc(-c3ccccc3)nc2CC1C(=O)NCCCO` (stereo unspecified) it was -5.59%; in that of `CCS(=O)(=O)N1CC[C@@H]2[C@H](COCC3CC3)CN(C)C(=O)[C@@H]2CC1`, -5.95%; in that of `c1cc(CNCC2Cn3nncc3CO2)cs1` (stereo unspecified), -6.68%.
In the case of `CC(C)N1c2sc(-c3ccccc3)nc2CC1C(=O)NC1CCCC1` (stereo unspecified) it was -6.93%.
In the case of `CC(C)N1c2sc(-c3ccsc3)nc2CC1C(=O)NC1CC1` (stereo unspecified) it was -5.25%; in that of `COCc1nc2c(o1)CN(C(=O)NCc1ccccc1)C2`, -12.9%.
On to `CCOc1cc(=O)n2c(c1C(=O)OCc1ccc(OC)cc1)CCCC2`, for which the cytotoxicity at 70.5 h was -14.9%.
In the case of `Cc1noc(C2CCCCN2C(=O)NCc2ccco2)n1` (stereo unspecified) it was -19.9%; in that of `CNC(=O)C1CCN(c2nc3nc[nH]c(=O)c3s2)CC1`, -16.7%; in that of `COc1cc(C(=O)NC(C)C)nc2c(C)cc(F)cc12`, 23.4%.
The value for `COc1cc(C(=O)NCC2CC2)nc2c(C)cc(F)cc12` was -4.75%; that for `COc1cc(C(=O)NCC2CCCO2)nc2c(C)cc(F)cc12` (stereo unspecified) was -25.4%.
The value for `CCc1c(C(=O)O)nnn1-c1cc(C)cc(C)c1` was -18.5%.
With `CN(C)CCCNC(=O)c1cc(Cl)ccc1Cl`, the cytotoxicity at 70.5 h was -14.5%.
The value for `CN(C)CCCNC(=O)c1ccccc1NC(=O)c1ccccc1Cl` was 22.1%.
In the case of `O=C(CCn1ccc2ccc(F)cc21)/N=c1\[nH]nc(C2CCCO2)s1` (stereo unspecified) it was -20.2%.
The value for `CC(CO)NC(=O)c1ccc2[nH]/c(=N\S(C)(=O)=O)sc2c1` (stereo unspecified) was -3.5%; that for `CSCCC(CO)NC(=O)c1ccc2[nH]/c(=N\S(C)(=O)=O)sc2c1` (stereo unspecified) was -13.7%.
For `Cc1ccccc1COCCOCn1c(C)cc(=O)[nH]c1=O`, the cytotoxicity at 70.5 h is -4.1%.
In the case of `Cc1noc2nc3c(c(C(=O)/N=c4\[nH]nc(C(C)C)s4)c12)CCC3` it was -12.5%.
The value for `COc1ccc(NC(=O)CSc2ccc3nncn3n2)c(OC)c1` was -15.9%; that for `Cc1nn(C)c2nc3c(c(C(=O)/N=c4\[nH]nc(C(C)C)s4)c12)CCC3` was -18.8%; that for `COc1ccc(NC(=O)CCSc2ccc3nncn3n2)c(OC)c1` was -11.8%.
The value for `COc1cc2[nH]c(C(=O)O)cc2c(OC)c1C` was -5.57%; that for `CCOc1cc(-c2cc(=O)n3c(n2)CCCCC3)ccc1O` was -20.5%.
On to `CSc1ccc(-n2nnc(C(=O)O)c2-c2ccccn2)cc1`, for which the cytotoxicity at 70.5 h came out at 11.2%.
The value for `CC(C)c1ccc(-n2nnc(C(=O)O)c2-c2ccccn2)cc1` was -24.1%; that for `COc1ccc(CCC2CCCCN2)cc1` (stereo unspecified) was 24.2%; that for `CSCC[C@H](N)c1nnc(SCc2cc(C)ccc2C)o1` was -5.14%.
With `COc1ccc(CNCC(C)Oc2ccccn2)cc1Cl` (stereo unspecified), the cytotoxicity at 70.5 h is -8.86%.
The value for `Cc1ccc(CNCC(C)Oc2ccccn2)cc1` (stereo unspecified) was -33.7%.
The value for `CCCN1CCC2(C1)c1ccccc1S(=O)(=O)N2Cc1ccccc1` (stereo unspecified) was 3.08%; that for `CS(=O)(=O)NCc1cn2c(n1)CN(Cc1ccoc1)CC2` was 3.17%; that for `Fc1cnc(N2CC3(CCN(CC4CC4)C3)C2)nc1` was -0.963%.
In the case of `O=C(Cc1ccsc1)N1C[C@@H]2OCCN(CC3CC3)[C@@H]2C1` it was 1.39%; in that of `CN(C)C(=O)COCc1nnc2n1CCN(Cc1ccsc1)C2`, 0.94%; in that of `Cc1nc(-c2cc(C(=O)N3CCCN(C)CC3)c3ccccn23)cn1C`, -2.18%.
On to `O=C(C1CN(CC2CCOCC2)CC12CCOCC2)N1CCOCC1` (stereo unspecified), for which the cytotoxicity at 70.5 h is -2.61%.
On to `O=S(=O)(C1CC1)N1CCC2(CC1)CN(Cc1nccs1)CCO2`, for which the cytotoxicity at 70.5 h is -5.12%.
For the compound `Fc1cnc(N2CCCC3(CN(Cc4ccccc4)CCO3)C2)nc1` (stereo unspecified), the cytotoxicity at 70.5 h was -4.05%.
In the case of `Cc1cccc(CO[C@@H]2CO[C@@]3(CCN(S(=O)(=O)N(C)C)C3)C2)n1` it was -4.3%; in that of `COCCN1CCO[C@@H]2CN(C(=O)Cc3cccc(F)c3)CC[C@@H]2C1`, -0.585%.
In the case of `Cc1cccc(COC2COC3(CCN(S(C)(=O)=O)CC3)C2)n1` (stereo unspecified) it was -0.691%; in that of `CC1CCN(C(=O)[C@@H]2C[C@@H]3CCN(CC4CCOCC4)C[C@@H]3O2)CC1`, -7.26%; in that of `CC1CCN(C(=O)[C@H]2C[C@@H]3CCN(CC4CCOCC4)C[C@H]3O2)CC1`, -6.03%.
The value for `CC(C)N(C)Cc1cnc2n1CCN(C(=O)Cc1cccs1)C2C` (stereo unspecified) was -6.21%.
Turning to `CCOCc1cnc2n1CCN(C(=O)Cc1ccccn1)C2C` (stereo unspecified), the cytotoxicity at 70.5 h is -5.89%.
In the case of `Cc1ccc(CN2CC[C@H]3[C@H]2CCN3S(=O)(=O)C2CC2)s1` it was -5.12%; in that of `Cc1ccc(CN2CC[C@H]3[C@H]2CCN3S(C)(=O)=O)s1`, -6.63%.
The value for `C[C@@H]1CN(C(=O)C2CCOCC2)C[C@]12CCN(c1cccnc1)C2=O` was -6.64%.
In the case of `CC(C)N1CCC2(CC1)CC(CC(N)=O)c1ccc(F)cc12` (stereo unspecified) it was -5.38%; in that of `Cc1ccc(NCc2cn3c(n2)CN(Cc2ccoc2)CC3)nn1`, 12%; in that of `CC(C)N(C)C[C@H]1OC[C@@H]2CCN(Cc3cccc(C#N)c3)C[C@@H]21`, 14.2%.
In the case of `O=c1ccc2c(n1Cc1cccnc1)CCN(C1CCOC1)CC2` (stereo unspecified), the cytotoxicity at 70.5 h is -2.89%.
The value for `CC(C)Nc1ncnc2c1CCN(Cc1nccn1C)CC2` was 8.85%.
In the case of `COCCN1CCO[C@@H]2CN(C(=O)NCc3cccnc3)CC[C@@H]2C1` it was 0.801%.
In the case of `CN(C)C[C@H]1OC[C@@H]2CN(C(=O)NCc3cccnc3)CC[C@@H]21` it was 0.184%; in that of `CN1CCCN(C(=O)c2cc(-c3cc[nH]n3)n3ccccc23)CC1`, -1.54%; in that of `CN1CCN(C(=O)[C@@H]2CC[C@@H]3[C@@H](CCN3c3ncccn3)O2)CC1`, -7.39%.
As to `CC(C)N1[C@H](Cn2cccn2)C[C@@H]2CN(C3CCOCC3)CC[C@@H]21`, the cytotoxicity at 70.5 h was -1.14%.
